Earlier results, collected in patent US12455270B2, “Mesh for dissolution test” (Shionogi & Co., Ltd., priority 2019, dated 2025).

Key:
[1] = input parameter of GastroPlus simulation
[2] = input parameter of GastroPlus simulation; remark: listed apart in the source

| logP [1] | CL [2] [L/h] | Plasma Fup [2] [%] | Vc [2] [L/kg] | k12 [2] [h⁻¹] | k21 [2] [h⁻¹] | SMILES |
| --- | --- | --- | --- | --- | --- | --- |
| 4.21 | 28.558 | 2.1 | 1.0902 | 0.1955 | 0.07268 | Cc1ccc(-c2cc(C(F)(F)F)nn2-c2ccc(S(N)(=O)=O)cc2)cc1 [Celecoxib] |
| 1.8 | 0.9087 | 28.8 | 0.6971 | 0.165 |  | NC(=O)N1c2ccccc2C=Cc2ccccc21 [Carbamazepine] |
